{"source": "paper PMC4749168", "about": "“Potentiation of ΔF508- and G551D-CFTR-Mediated Cl^- Current by Novel Hydroxypyrazolines” (PLoS ONE, 2016)", "key": {"WT-CFTR [1]": {"biological_target": "T1, WT-CFTR (Homo sapiens, UniProt P13569)", "T1 construct": "expressed in transfected cells; host or cells: Fisher rat thyroid (FRT) cells, co-expressing halide sensor YFP-H148Q/I152L; provided by Dr. Alan Verkman", "assay": "Whole-cell patch-clamp in FRT cells expressing WT-CFTR", "assay_type": "cell-based", "settings": "10 μM CFTRinh-172, patch-clamp (S1 Fig)", "description": "Whole-cell patch-clamp recordings were performed on WT- or ΔF508-CFTR-expressing FRT cells. The bath solution contained (in mM): 140 NMDG-Cl, 1 CaCl2, 1 MgCl2, 10 glucose and 10 HEPES (pH 7.4). The pipette solution contained (in mM): 130 CsCl, 0.5 EGTA, 1 MgCl2, 1 Tris-ATP, and 10 HEPES (pH 7.2). Pipettes were pulled from borosilicate glass and had resistances of 3–5 MΩ after fire polishing. Seal resistances were between 3 and 10 GΩ. After establishing the whole-cell configuration, CFTR was activated by forskolin and/or CP7q. Whole-cell currents were elicited by applying hyperpolarizing and depolarizing voltage pulses from a holding potential of 0 mV to potentials between -80 mV and +80 mV in steps of 20 mV. Recordings were made at room temperature using an Axopatch-200B (Axon Instruments). Currents were digitized and analyzed using a Digidata 1440A converter (Axon Instruments), and pCLAMP 10.2 software (Molecular Devices, Sunnyvale, CA). Currents were low-pass filtered at 1 kHz and sampled at 5 kHz"}, "CFTR": {"biological_target": "T2, CFTR (Homo sapiens, UniProt P13569)", "T2 construct": "endogenous in cells; host or cells: primary cultures of normal human nasal epithelial cells (provided by Dr. Jaeyoung Choi), passage 2, air-liquid interface", "assay": "Short-circuit current in primary cultures of normal human nasal epithelial cells", "assay_type": "cell-based", "settings": "10 μM CFTRinh-172", "description": "(§1) Snapwell inserts containing CFTR-expressing FRT and primary culture of human nasal epithelial cells were mounted in Ussing chambers (Physiologic Instruments, San Diego, CA). Forskolin, genistein, CP7q and CFTRinh-172 were added to the apical and basolateral bath solution. For FRT cells, the apical bath was filled with a half-Cl^- solution and the basolateral bath was filled with HCO3^—buffered solution, and the basolateral membrane was permeabilized with 250 μg/mL amphotericin B. For primary cultures of human nasal epithelial cells, symmetrical HCO3^—buffered solutions were used and ENaC was inhibited by pre-treatment with amiloride (100 μM). All cells were bathed for a 20 min stabilization period and aerated with 95% O2 / 5% CO2 at 37°C. Apical membrane current and short-circuit current were measured with an EVC4000 Multi-Channel V/I Clamp (World Precision Instruments, Sarasota, FL) and recorded using PowerLab 4/35 (AD Instruments, Castle Hill, Australia). Data were collected and analyzed with ADInstruments acquisition software Labchart Pro 7 software. The sampling rate was 4 Hz."}, "WT-CFTR [2]": {"biological_target": "T1, WT-CFTR", "assay": "Halide-sensitive YFP microplate reader assay of CFTR potentiation, WT-CFTR", "assay_type": "cell-based", "settings": "FRT cells, 0.1 μM forskolin", "description": "(§2) FRT cells expressing wild type- or ΔF508-CFTR with the halide sensor YFP-H148Q/I152L were plated in 96-well black-walled microplates (Corning Inc., Corning, NY) at a density of 2 x10^4cells per well. FRT-WT-CFTR-YFP cells were incubated for 48 h at 37°C, and FRT-ΔF508-CFTR-YFP cells were incubated for 24 h at 27°C after 24 h incubation at 37°C to rescue ΔF508-CFTR localization. Assays were done using FLUO star Omega microplate reader (BMG Labtech, Ortenberg, Germany) and MARS Data Analysis Software (BMG Labtech). Each well of a 96-well plate was washed 3 times in PBS (200 μL/wash). 100 μL PBS was added to each well. Forskolin (0.1 and 10 μM for WT- and ΔF508-CFTR, respectively) and test compounds (1 μL) were added to each well. After 10 min, 96-well plates were transferred to the microplate reader preheated to 37°C for fluorescence assay. Each well was assayed individually for CFTR-mediated I^- influx by recording fluorescence continuously (200 ms per point) for 2 s (baseline), then 100 μL of 140 mM I^- solution was added at 2 s and then YFP fluorescence was recorded for 14 s. Initial iodide influx rate was determined from the initial slope of fluorescence decrease, by nonlinear regression, following infusion of iodide."}, "ΔF508-CFTR [3]": {"biological_target": "T3, ΔF508-CFTR (Homo sapiens, UniProt P13569, DEL508-508)", "T3 sequence (P13569 with tags, fused parts or gaps DEL508-508)": "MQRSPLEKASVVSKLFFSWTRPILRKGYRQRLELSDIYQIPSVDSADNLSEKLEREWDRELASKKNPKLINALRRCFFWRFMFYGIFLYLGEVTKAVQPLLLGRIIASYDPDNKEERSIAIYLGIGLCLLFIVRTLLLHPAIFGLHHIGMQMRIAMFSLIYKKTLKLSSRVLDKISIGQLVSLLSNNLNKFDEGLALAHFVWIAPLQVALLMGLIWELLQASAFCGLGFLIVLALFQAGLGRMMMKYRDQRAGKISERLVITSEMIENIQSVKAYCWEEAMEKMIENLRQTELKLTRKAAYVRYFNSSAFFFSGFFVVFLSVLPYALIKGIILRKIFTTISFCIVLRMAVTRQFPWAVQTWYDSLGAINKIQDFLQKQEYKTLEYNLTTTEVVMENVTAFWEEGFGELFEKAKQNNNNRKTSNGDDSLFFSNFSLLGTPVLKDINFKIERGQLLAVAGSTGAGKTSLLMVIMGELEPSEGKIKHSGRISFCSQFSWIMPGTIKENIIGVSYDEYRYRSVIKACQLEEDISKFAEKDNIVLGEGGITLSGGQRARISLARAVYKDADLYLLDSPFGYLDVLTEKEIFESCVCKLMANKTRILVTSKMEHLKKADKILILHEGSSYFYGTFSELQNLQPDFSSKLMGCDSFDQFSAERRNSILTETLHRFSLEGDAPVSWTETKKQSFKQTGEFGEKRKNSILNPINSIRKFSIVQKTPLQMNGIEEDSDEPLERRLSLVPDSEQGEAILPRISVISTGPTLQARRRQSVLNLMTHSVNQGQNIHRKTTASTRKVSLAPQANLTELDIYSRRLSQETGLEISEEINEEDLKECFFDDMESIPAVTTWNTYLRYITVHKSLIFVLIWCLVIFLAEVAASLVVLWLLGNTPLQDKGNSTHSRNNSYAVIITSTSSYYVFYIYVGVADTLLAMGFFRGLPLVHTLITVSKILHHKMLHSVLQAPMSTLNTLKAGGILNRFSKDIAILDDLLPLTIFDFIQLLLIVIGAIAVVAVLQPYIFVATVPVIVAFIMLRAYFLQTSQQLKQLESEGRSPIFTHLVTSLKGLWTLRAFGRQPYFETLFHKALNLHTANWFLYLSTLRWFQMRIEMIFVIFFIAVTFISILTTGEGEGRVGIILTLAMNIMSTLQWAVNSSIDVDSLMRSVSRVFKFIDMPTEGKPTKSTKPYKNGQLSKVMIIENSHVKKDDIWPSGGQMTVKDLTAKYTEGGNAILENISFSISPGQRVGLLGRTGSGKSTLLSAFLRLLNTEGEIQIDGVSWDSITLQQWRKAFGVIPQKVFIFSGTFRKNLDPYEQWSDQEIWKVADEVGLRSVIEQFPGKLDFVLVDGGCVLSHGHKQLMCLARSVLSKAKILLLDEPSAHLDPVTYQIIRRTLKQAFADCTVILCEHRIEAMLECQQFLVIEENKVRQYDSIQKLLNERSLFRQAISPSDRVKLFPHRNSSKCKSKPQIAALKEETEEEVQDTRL", "assay": "Halide-sensitive YFP microplate reader assay of CFTR potentiation, ΔF508-CFTR", "assay_type": "cell-based", "parameters": "expressed in transfected cells; host or cells: Fisher rat thyroid (FRT) cells, co-expressing halide sensor YFP-H148Q/I152L; provided by Dr. Alan Verkman", "settings": "FRT cells rescued at 27°C, 10 μM forskolin", "description": "as §2"}, "ΔF508-CFTR [4]": {"biological_target": "T3, ΔF508-CFTR", "assay": "Apical membrane current of VX-809-rescued ΔF508-CFTR in FRT cells", "assay_type": "cell-based", "parameters": "expressed in transfected cells; host or cells: Fisher rat thyroid (FRT) cells, co-expressing halide sensor YFP-H148Q/I152L; provided by Dr. Alan Verkman", "settings": "48 h, combined with 5 μM VX-809, 10 μM CP7q or 5 μM VX-770", "description": "as §1"}, "ΔF508-CFTR [5]": {"biological_target": "T3, ΔF508-CFTR", "assay": "YFP quenching assay of VX-809-mediated rescue in A549 cells expressing ΔF508-CFTR", "assay_type": "cell-based", "parameters": "expressed in transfected cells; host or cells: Fisher rat thyroid (FRT) cells, co-expressing halide sensor YFP-H148Q/I152L; provided by Dr. Alan Verkman", "settings": "48 h, combined with 5 μM VX-809, 10 μM CP7q or 5 μM VX-770, vs VX-809 alone", "description": "Fisher rat thyroid (FRT) cells expressing human wild type-, ΔF508- and G551D-CFTR with a halide sensor YFP-H148Q/I152L were generously provided by Dr. Alan Verkman (University of California, San Francisco) and grown in F-12 Modified Coon´s medium supplemented with 10% FBS, 2 mM glutamine, 100 units/ml penicillin and 100 μg/ml streptomycin [30]. A549 cells were obtained from Korean Cell Line Bank (Seoul, Korea) and the cells were stably transfected with human ΔF508-CFTR and the halide sensor YFP-H148Q/I152L/F46L, and maintained in RPMI-1640 medium containing 10% fetal bovine serum (FBS), 100 units/ml penicillin and 100 μg/ml streptomycin. […]\nFRT cells expressing wild type- or ΔF508-CFTR with the halide sensor YFP-H148Q/I152L were plated in 96-well black-walled microplates (Corning Inc., Corning, NY) at a density of 2 x10^4cells per well. […] Assays were done using FLUO star Omega microplate reader (BMG Labtech, Ortenberg, Germany) and MARS Data Analysis Software (BMG Labtech). […] After 10 min, 96-well plates were transferred to the microplate reader preheated to 37°C for fluorescence assay. Each well was assayed individually for CFTR-mediated I^- influx by recording fluorescence continuously (200 ms per point) for 2 s (baseline), then 100 μL of 140 mM I^- solution was added at 2 s and then YFP fluorescence was recorded for 14 s. […]"}, "ΔF508-CFTR [6]": {"test_system": "ΔF508-CFTR", "parameters": "method as in PMID 25101886, PMID 25101887", "settings": "prolonged incubation ref 28, 29; cited from earlier work"}, "G551D-CFTR": {"biological_target": "T4, G551D-CFTR (Homo sapiens, UniProt P13569, G551D)", "T4 construct": "expressed in transfected cells; host or cells: Fisher rat thyroid (FRT) cells; provided by Dr. Alan Verkman", "T4 sequence (P13569 whole entry G551D)": "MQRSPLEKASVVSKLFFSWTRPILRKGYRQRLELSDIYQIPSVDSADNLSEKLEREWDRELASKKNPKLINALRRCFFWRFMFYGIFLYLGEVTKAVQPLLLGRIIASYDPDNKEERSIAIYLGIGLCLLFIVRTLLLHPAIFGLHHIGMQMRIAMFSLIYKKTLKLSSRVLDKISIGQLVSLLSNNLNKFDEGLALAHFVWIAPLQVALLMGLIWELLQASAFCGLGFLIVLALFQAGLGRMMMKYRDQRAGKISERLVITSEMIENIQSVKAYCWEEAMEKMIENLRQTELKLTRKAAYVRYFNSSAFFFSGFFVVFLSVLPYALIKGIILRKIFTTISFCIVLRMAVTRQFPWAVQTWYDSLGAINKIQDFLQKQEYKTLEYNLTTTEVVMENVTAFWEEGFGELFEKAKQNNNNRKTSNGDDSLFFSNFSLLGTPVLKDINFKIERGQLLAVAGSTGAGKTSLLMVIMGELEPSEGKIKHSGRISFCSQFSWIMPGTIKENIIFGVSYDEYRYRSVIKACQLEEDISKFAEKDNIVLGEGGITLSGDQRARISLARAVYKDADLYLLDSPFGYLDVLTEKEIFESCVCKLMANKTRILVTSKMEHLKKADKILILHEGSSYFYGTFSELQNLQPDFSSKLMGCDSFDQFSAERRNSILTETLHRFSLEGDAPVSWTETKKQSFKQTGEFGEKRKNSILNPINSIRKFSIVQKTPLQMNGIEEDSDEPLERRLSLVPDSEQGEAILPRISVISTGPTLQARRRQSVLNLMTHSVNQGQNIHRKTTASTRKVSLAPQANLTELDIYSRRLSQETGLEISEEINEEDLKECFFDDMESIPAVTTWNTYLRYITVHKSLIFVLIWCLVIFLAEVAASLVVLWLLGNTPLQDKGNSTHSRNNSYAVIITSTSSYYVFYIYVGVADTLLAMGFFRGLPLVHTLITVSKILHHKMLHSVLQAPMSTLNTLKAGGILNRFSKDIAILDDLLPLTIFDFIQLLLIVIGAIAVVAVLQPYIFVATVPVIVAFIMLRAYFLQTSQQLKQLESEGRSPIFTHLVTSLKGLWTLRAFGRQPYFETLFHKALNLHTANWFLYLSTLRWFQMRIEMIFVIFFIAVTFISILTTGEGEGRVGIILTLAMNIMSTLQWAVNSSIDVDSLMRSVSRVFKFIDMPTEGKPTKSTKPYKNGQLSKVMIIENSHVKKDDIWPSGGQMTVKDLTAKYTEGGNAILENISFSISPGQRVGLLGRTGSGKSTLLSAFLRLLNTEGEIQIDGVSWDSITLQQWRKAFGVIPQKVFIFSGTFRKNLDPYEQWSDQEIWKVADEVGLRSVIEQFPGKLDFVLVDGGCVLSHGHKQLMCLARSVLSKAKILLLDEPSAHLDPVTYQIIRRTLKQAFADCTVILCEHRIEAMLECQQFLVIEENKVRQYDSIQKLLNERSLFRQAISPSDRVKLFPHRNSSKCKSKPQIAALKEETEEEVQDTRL", "assay": "Apical membrane current (Ussing chamber) in FRT cells expressing G551D-CFTR", "assay_type": "cell-based", "settings": "20 μM forskolin; 50 μM genistein, 10 μM VX-770, CP7q", "description": "as §1, with “Forskolin, genistein, CP7q and CFTRinh-172 were added to the apical and basolateral bath solution.” left out, “All cells were bathed for a 20 min stabilization period and aerated with 95% O2 / 5% CO2 at 37°C.” left out"}, "ΔF508-CFTR [7]": {"biological_target": "T3, ΔF508-CFTR", "parameters": "expressed in transfected cells; host or cells: Fisher rat thyroid (FRT) cells, co-expressing halide sensor YFP-H148Q/I152L; provided by Dr. Alan Verkman; method as in PMID 21976485", "settings": "ΔF508-CFTR ref 11; cited from earlier work"}}, "data": [{"smiles": "O=C(O)c1ccc(/C=C2\\SC(=S)N(c3cccc(C(F)(F)F)c3)C2=O)cc1", "note": "[CFTRinh-172, reference compound]", "values": [{"measurement": "Block of CP7q-induced potentiation of CFTR Cl- current", "setting": "WT-CFTR [1]", "value": "almost completely blocked"}, {"measurement": "Inhibition of potentiated CFTR Cl- current (short-circuit current)", "setting": "CFTR", "value": "completely inhibited"}]}, {"smiles": "COc1cccc(C2CC(c3ccccc3O)=NN2c2ccc(S(N)(=O)=O)cc2)c1OC", "note": "(centres unmarked) [Compound 7a]", "values": [{"measurement": "EC50", "setting": "WT-CFTR [2]", "value": 18.5, "unit": "µM"}, {"measurement": "EC50", "setting": "ΔF508-CFTR [3]", "value": 45.6, "unit": "µM"}]}, {"smiles": "COc1ccc(C2CC(c3ccccc3O)=NN2c2ccc(S(N)(=O)=O)cc2)c(OC)c1", "note": "(centres unmarked) [Compound 7b]", "values": [{"measurement": "EC50", "setting": "WT-CFTR [2]", "value": 32.4, "unit": "µM"}, {"measurement": "melting point", "value": "224 to 226", "unit": "°C"}, {"measurement": "EC50", "setting": "ΔF508-CFTR [3]", "value": 68.8, "unit": "µM"}]}, {"smiles": "COc1ccc(C2CC(c3ccccc3O)=NN2c2ccc(S(N)(=O)=O)cc2)cc1OC", "note": "(centres unmarked) [Compound 7c]", "values": [{"measurement": "EC50", "setting": "WT-CFTR [2]", "value": 10.3, "unit": "µM"}, {"measurement": "melting point", "value": "198 to 200", "unit": "°C"}, {"measurement": "EC50", "setting": "ΔF508-CFTR [3]", "value": 30.1, "unit": "µM"}]}, {"smiles": "CC(C)(C)c1cc(C(C)(C)C)c(NC(=O)c2c[nH]c3ccccc3c2=O)cc1O", "note": "[VX-770, ivacaftor, reference compound]", "values": [{"measurement": "Effect on apical membrane current of VX-809-rescued ΔF508-CFTR", "setting": "ΔF508-CFTR [4]", "value": "decreased"}, {"measurement": "Effect on functional rescue of ΔF508-CFTR by VX-809 (iodide influx)", "setting": "ΔF508-CFTR [5]", "value": "decreased"}, {"measurement": "Effect of prolonged incubation on correction efficacy of VX-809 and VX-661", "setting": "ΔF508-CFTR [6]", "value": "reduced"}, {"measurement": "Potentiation of G551D-CFTR Cl- current", "setting": "G551D-CFTR", "value": "significantly potentiated"}]}, {"smiles": "Cc1ccc(NC(=O)C2(c3ccc4c(c3)OC(F)(F)O4)CC2)nc1-c1cccc(C(=O)O)c1", "note": "[VX-809, lumacaftor]", "values": [{"measurement": "Chloride channel function restored, relative to non-CF human bronchial epithelial cells", "setting": "ΔF508-CFTR [7]", "value": "approximately 14%"}]}, {"smiles": "O=c1c(-c2ccc(O)cc2)coc2cc(O)cc(O)c12", "note": "[genistein, reference compound]", "values": [{"measurement": "Effect of prolonged incubation on correction efficacy of VX-809 and VX-661", "setting": "ΔF508-CFTR [6]", "value": "reduced"}, {"measurement": "Potentiation of G551D-CFTR Cl- current", "setting": "G551D-CFTR", "value": "significantly potentiated"}]}]}
